Source: ChEMBL document CHEMBL1201862, “PubChem BioAssay data set” (2004)
Active and inactive are the calls of the source.

Legend:
[1] = target: fMet-Leu-Phe receptor (Homo sapiens, UniProt P21462); assay: FPR ligands, dose response (AID 519); format: functional
[2] = HepG2 cell cytotoxicity, dose response, cytotoxicity control for Shn3 inhibitor project, CellTiter-Glo, cherry-picked (AID 624134); format: functional, cell-based
[3] = Shn3 3'UTR reporter inhibitors, dose response, cell-based, Clone20 osteoblasts, firefly luciferase, cherry-picked (AID 624132); format: functional;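 also: firefly luciferase luminescence from reporter carrying the Shn3 3'UTR in osteoblasts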
[4] = test system: INS1; assay: beta cell apoptosis inhibitors, cytokine rescue, dose response, luminescence, retest (AID 449756); format: functional, cell-based; settings: Rattus norvegicus;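 also: cell death triggered by IL-1 beta plus TNF-alpha plus IFN-gamma mixture; protective hits raise ATP signal compared with cytokine alone wells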
[5] = reduction of Shn3 3'UTR firefly luciferase signal, dose response, Schnurri-3 inhibitor project, cell-based, Clone20 osteoblasts, cherry-pick, set 2 (AID 720490); format: functional;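 also: actives lower the luminescence signal as inhibitors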
[6] = control 3'UTR Renilla luciferase suppression, dose response, counter-screen for Shn3 inhibitor project, cell-based, Clone20-Shn3RL, cherry-picked (AID 624133); format: functional
[7] = target: NAD-dependent protein deacylase sirtuin-5, mitochondrial (Homo sapiens, UniProt Q9NXA8); assay: SIRT5 desuccinylase inhibitors, dose response, biochemical, fluorescence imaging, cherry-pick, set 5 (AID 720591);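 also: desuccinylation of succinyl peptide AMC substrate read as fluorescence after trypsin release; potency of inhibitors that lower fluorescence and may act on trypsin instead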
[8] = Dose-response inhibition of insulin secretion in a rat insulinoma line at 5 mM glucose (AID 1117331); format: functional, cell-based; settings: INS-1E
[9] = inhibitors of PGC1a acetylation in cells, dose response, cell-based, cherry-picked samples (AID 720514); format: functional;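 also: potency may reflect raised or lowered acetylation signal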
[10] = target: Delta-type opioid receptor (Homo sapiens, UniProt P41143); assay: Counterscreen for agonists of heterodimerization of the mu 1 (OPRM1) and delta 1 (OPRD1) opioid receptors: Luminescence-based cell-based high throughput dose response assay to identify agonists of OPRD1 homodimerization. [Related pubchem assays (depositor defined):AID504326, AID504355, AID504692, AID504904, AID504905]; format: functional
[11] = target: Paired box protein Pax-8 (Homo sapiens, UniProt Q06710); assay: inhibitors of PAX8-driven TPO luciferase reporter, dose response, RMG-I cells, cherry-pick (AID 687027); format: functional, cell-based;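 also: luciferase reporter driven by Pax8 target thyroperoxidase promoter measured by SteadyGlo luminescence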
[12] = non-specific cell cytotoxicity, dose response, cytotoxicity control for PAX8 inhibitor project, plate reader, dry powder samples (AID 743021); format: functional, cell-based
[13] = target: Mu-type opioid receptor (Homo sapiens, UniProt P35372); assay: Counterscreen for agonists of heterodimerization of the mu 1 (OPRM1) and delta 1 (OPRD1) opioid receptors: Luminescence-based cell-based high throughput dose response assay to identify agonists of OPRM1 homodimerization.; format: functional;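 also: U2OS cells expressing OPRM1 and beta-arrestin as split beta-galactosidase partners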
[14] = target: T1, Ubiquitin-conjugating enzyme E2 N (Homo sapiens, UniProt P61088); format: functional;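 also: Dose-response confirmation in a TR-FRET assay detecting UBC13-driven polyubiquitin chain formation, inhibition measured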
T1 sequence (P61088 whole entry): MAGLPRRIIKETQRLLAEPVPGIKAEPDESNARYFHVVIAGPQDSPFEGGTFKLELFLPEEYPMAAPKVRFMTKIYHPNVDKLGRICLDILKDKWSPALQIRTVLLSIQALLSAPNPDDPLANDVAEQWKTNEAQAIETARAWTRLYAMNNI

[15] = target: 5-hydroxytryptamine receptor 5A (Homo sapiens, UniProt P47898); assay: Counterscreen for agonists of OPRM1-OPRD1 heterodimerization: luminescence-based cell-based high throughput dose response assay to identify agonists of 5-hydroxytryptamine (serotonin) 5A receptor (HTR5A). [Related pubchem assays (depositor defined):AID504326, AID504355, AID504692, AID504904, AID504905]; format: functional
Chain of 5-hydroxytryptamine receptor 5A (P47898 whole entry): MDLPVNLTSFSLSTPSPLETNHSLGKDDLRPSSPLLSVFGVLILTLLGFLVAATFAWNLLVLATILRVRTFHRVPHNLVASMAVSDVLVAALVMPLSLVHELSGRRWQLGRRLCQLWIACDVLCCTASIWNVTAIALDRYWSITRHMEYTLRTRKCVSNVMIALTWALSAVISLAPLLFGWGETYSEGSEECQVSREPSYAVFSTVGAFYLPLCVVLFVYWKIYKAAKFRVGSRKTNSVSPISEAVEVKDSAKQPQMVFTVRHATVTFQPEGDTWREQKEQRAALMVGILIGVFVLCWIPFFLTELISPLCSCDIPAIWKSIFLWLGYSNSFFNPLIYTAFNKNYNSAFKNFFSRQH

Chain of NAD-dependent protein deacylase sirtuin-5, mitochondrial (Q9NXA8 whole entry): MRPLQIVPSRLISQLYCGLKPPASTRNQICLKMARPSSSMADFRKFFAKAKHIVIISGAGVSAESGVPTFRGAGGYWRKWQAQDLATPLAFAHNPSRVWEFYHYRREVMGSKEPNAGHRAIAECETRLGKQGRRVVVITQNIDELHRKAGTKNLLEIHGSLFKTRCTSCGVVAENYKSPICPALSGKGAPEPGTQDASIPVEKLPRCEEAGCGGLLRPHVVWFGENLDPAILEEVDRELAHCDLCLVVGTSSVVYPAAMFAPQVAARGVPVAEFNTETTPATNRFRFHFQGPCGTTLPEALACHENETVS
Chain of Mu-type opioid receptor (P35372 whole entry): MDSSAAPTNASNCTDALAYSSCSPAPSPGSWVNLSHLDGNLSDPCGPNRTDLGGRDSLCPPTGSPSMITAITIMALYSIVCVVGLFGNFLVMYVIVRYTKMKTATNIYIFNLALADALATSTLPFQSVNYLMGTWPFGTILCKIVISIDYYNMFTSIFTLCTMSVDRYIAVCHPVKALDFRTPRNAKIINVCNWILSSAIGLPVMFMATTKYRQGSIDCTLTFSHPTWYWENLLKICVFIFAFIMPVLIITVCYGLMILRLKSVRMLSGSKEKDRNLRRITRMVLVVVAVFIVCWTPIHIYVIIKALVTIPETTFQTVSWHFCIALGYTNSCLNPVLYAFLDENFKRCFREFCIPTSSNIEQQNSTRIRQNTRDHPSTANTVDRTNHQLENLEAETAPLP
Chain of fMet-Leu-Phe receptor (P21462 whole entry): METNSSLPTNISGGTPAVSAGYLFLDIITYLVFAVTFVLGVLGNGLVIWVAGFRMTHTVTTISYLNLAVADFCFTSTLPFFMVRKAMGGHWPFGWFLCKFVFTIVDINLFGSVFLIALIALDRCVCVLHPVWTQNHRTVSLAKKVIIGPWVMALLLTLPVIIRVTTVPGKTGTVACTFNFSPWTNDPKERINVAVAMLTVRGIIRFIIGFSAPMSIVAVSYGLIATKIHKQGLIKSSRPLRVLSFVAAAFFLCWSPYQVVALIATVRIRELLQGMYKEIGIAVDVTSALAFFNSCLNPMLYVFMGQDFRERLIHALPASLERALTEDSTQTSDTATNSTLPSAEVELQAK
Chain of Delta-type opioid receptor (P41143 whole entry): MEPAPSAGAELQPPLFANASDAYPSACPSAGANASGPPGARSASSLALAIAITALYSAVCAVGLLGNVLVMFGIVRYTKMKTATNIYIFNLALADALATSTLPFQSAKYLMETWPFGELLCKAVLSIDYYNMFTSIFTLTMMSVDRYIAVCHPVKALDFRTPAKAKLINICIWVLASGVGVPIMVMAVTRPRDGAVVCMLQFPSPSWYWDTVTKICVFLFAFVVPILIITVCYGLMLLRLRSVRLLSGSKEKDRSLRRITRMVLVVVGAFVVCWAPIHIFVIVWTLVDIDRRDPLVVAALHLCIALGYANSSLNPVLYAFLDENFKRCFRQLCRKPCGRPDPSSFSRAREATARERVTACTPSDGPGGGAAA
Chain of Paired box protein Pax-8 (Q06710 whole entry): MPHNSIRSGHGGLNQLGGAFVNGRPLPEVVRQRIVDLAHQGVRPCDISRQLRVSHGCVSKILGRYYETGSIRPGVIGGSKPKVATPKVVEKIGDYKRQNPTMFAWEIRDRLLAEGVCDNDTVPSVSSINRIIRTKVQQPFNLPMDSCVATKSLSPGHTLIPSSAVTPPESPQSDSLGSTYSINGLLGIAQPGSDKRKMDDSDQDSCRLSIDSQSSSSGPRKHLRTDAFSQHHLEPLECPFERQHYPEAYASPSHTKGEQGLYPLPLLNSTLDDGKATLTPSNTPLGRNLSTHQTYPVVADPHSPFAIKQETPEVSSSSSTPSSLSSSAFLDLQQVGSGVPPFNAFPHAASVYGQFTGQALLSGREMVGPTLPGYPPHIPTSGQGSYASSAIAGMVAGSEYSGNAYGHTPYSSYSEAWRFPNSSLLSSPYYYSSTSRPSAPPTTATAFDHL

For CC1(C)S[C@@H]2[C@H](NC(=O)Cc3ccccc3)C(=O)N2[C@H]1C(=O)O [PENICILLIN G POTASSIUM], the Ki [1] was 7.8 µM (active).

With Cc1ccc(NC(=O)c2cc(S(=O)(=O)NCCC3=CCCCC3)ccc2F)cc1F the AC50 [2] was 41.5 µM (active), the AC50 [3] was 4.13 µM (active) and the AC50 [4] was 3.03 µM (active). The AC50 [5] was 3.83 µM (active) and the AC50 [6] was 46.1 µM (active).

With CS(=O)(=O)N(CC(=O)N1CCCCC1)c1cccc(F)c1 the AC50 [7] was 29.7 µM (active).

In the case of C[C@@H](CN(C)C)CN1c2ccccc2Sc2ccccc21, the IC50 [8] is reported as > 33.3 µM (inactive).

In the case of O=C(Nc1cc(S(=O)(=O)N2CCOCC2)ccc1Cl)c1cc([N+](=O)[O-])ccc1Cl, the AC50 [9] is reported as 13 µM (active).

For CCN1CCN(Cc2ccc(NC(=O)c3ccc(C)c(NC(=O)c4cnc5cc(C(F)(F)F)ccc5c4O)c3)cc2C(F)(F)F)CC1, the EC50 [10] was 11.2 µM (inactive), the AC50 [11] was 10.6 µM (active) and the AC50 [12] was 26.2 µM (active). For the same compound, the AC50 [4] was 4.42 µM (active), the EC50 [13] was > 92.5 µM (inactive) and the IC50 [14] was > 20 µM (inactive). For the same compound, the EC50 [15] was > 92.5 µM (inactive).
